Experimental data taken from patent EP0254534A2, “Erythromycin derivatives and compositions and use for inhibiting virus replication and disease” (Robinson, William S., priority 1986, dated 1988).
Values joined by “and” are separate entries in the source; they are usually repeats but may differ in a detail not shown here. Equal entries are not always repeated. Where two headings read alike, the source gives them in different places.

Key:
HTLV III = assay: Inhibition of growth of HTLV III in infected T-cell line (VB) in tissue culture; culture medium assayed by reverse transcriptase and P-24 ELISA; type: cell-based; settings: HTLV III infected VB T-cells; for inhibition at 1 µg/mL: EMO 1 µg/ml; for inhibition at 5 µg/mL: EMO 5 µg/ml; for inhibition at 10 µg/mL: EMO 10 µg/ml; for inhibition at 20 µg/mL: EMO 20 µg/ml
Protocol: A sample of 9-0-methyloximinyl erythromycin A (EMO) was tested for capacity to inhibit growth of HTLV III in tissue culture. A T-cell line (VB) was infected with HTLV III and infected cells were incubated with 0, 1, 5, 10 and 20 µgm EMO per ml of tissue culture medium. Culture medium was recovered after 0, 1, 2, 3, and 4 days of incubation and assayed for HTLV III production by reverse transcriptase and viral antigen (P-24) testing by ELISA.

DHBV = assay: In vivo replication of DHBV in chronically infected Pekin ducks; serum viral DNA by slot blot hybridization
Protocol: A sample of 9-0-methyloximinyl erythromycin A (EMO) in solution at a concentration of 100 mg/ml in dimethyl sulfoxide (DMSO) was administered subcutaneously at a dose of 15 mg/kg/day for 14 days to a group of 10-week old Pekin ducks chronically infected with DHBV (experimentally infected as described by Marion et al., "Liver Disease Associated with Duck Hepatitis B Virus Infection of Domestic Ducks", Proc. Natl. Acad. Sci. USA (1984) 81:898). Another group of 10-week old Pekin ducks were used as a control and treated with the same dose of DMSO alone. In vivo replication of virus was assessed by measuring levels of DHBV virus in the serum of infected animals before, during, and after treatment. Virus levels in serum were determined by quantitating the DNA of the virus by slot blot hybridization. Ten µl of each serum was made up to 0.1 M with NaOH to disrupt virus and denature the viral DNA. The samples were spotted on nylon membrane which binds single stranded DNA. The filter-bound viral DNA was detected by hybridization with a DHBV [³²P]- DNA probe followed by autoradiography. The quantity of viral DNA in each serum sample, expressed as picograms of viral DNA/ml serum, was determined by comparing densitometer tracings of the exposed area of film overlying each serum spot on the nylon membrane with a standard curve derived from densitometer tracings for known amounts of DHBV DNA similarly spotted on the same nylon membrane.
EMO was administered beginning on day 8 for 14 days at the rate of 15 mg/kg/day. The low level was retained until day 22 (when EMO treatment was discontinued) thereafter the viral level began to climb and was followed to day 32, where the level reached about 650 picograms DHPV DNA/ml serum.
Table 2 summarizes the results of treatment of four animals with erythromycin A 9-0-methyloxime (EMO) in DMSO and four animals with DMSO alone as determined on day 22 after termination of administration of the drug after 14 days. Virus was similarly found to be suppressed by EMO treatment in each animal and not by DMSO.

[1] = culture medium, read-out: % Reduction Reverse Transcriptase
[2] = viral antigen by ELISA, read-out: % Reduction P-24

CCC1OC(=O)C(C)C(OC2CC(C)(OC)C(O)C(C)O2)C(C)C(OC2OC(C)CC(N(C)C)C2O)C(C)(O)CC(C)C(=NOC)C(C)C(O)C1(C)O (centres unmarked) [EMO, 9-0-methyloximinyl erythromycin A] gave an inhibition at 1 µg/mL (HTLV III; [1]) of 10%, an inhibition at 1 µg/mL (HTLV III; [2]) of 8% and an inhibition at 5 µg/mL (HTLV III; [1]) of 50%. The inhibition at 5 µg/mL (HTLV III; [2]) was 45%, the inhibition at 10 µg/mL (HTLV III; [1]) was 73% and the inhibition at 10 µg/mL (HTLV III; [2]) was 69%. For the same molecule, the inhibition at 20 µg/mL (HTLV III; [1]) was 82%, the inhibition at 20 µg/mL (HTLV III; [2]) was 86% and the “% Reduction in DHBV DNA In Serum After 14 Days Treatment” value (DHBV; 15 mg/kgm/day in DMSO, subcutaneous, 14 days, individual ducks (Animal No. 1-4), determined on day 22) was 100% (2×) and 96% and 94%. For the same molecule, the “picograms of DHPV DNA/ml serum” value (DHBV; by day 12 (EMO 15 mg/kg/day from day 8 for 14 days; 900 at day 0, maximum 1500 by day 8), low level retained until day 22) was “below the level of detection” and the “picograms of DHPV DNA/ml serum” value (DHBV; day 32, 10 days after EMO treatment was discontinued (day 22)) was “about 650 picograms DHPV DNA/ml serum”.
